These results are taken from patent EP3064205A1, “Therapeutic use of isomeric forms of 2-(4-chlorophenyl)quinolin-4-yl)(piperidin-2-yl)methanol” (Glionova AB, priority 2015, dated 2016).

The structures appear in SMILES notation. pIC50: −log10 of the molar value. Where two headings read alike, the source gives them in different places.

The pIC50 is the IC50 on a negative log10 scale, so that one unit is a factor of ten.

The test system of assay [1] is patient-derived tumor xenograft (PDX) tumor panel. The experiment in a line: 3D clonogenic assay, whole panel. Format: cell-based, human. As to conditions: for pIC50: Homo sapiens. As for the experimental part: The anti-tumor efficacy of S1 in the patient-derived tumor xenograft (PDX) tumor panel was assessed, where the efficacy of S1 in PDX tumor panel in the 96-well format, in 10 concentrations in duplicate was performed. Colony formation of tumor cell suspensions in a soft-agar matrix was observed and quantified. The output is IC50 values and dose response-relationships based on number of colonies in control and treatment wells, as identified by an automated image analysis algorithm. Stock solution of S1 was prepared in 100% DMSO at 10 mM concentration (stored at -20°C) and reused for each experiment. Compound final test concentrations: Dilution series ½ i.e.: 50µM, 15, 5, 1.5, 0.5, 0.15, 0.05, 0.015, 0.005 and 0.0015.
Tumor xenografts (also referred to as patient-derived tumor xenografts) were passaged as subcutaneous xenografts in NMRI nu/nu mice. Tumor xenograft were removed from mice under sterile conditions, mechanically disaggregated and subsequently incubated with an enzyme cocktail consisting of collagenase type IV (41 U/mL), DNase I (125 U/mL), hyaluronidase type III (100 U/mL) and dispase II (1.0 U/mL) in RPMI 1640 medium at 37°C for 60 - 120 minutes. Cells were passed through sieves of 100 µm and 40 µm mesh size and washed with RPMI 1640 medium. The percentage of viable cells was determined in a Neubauer-hemocytometer using trypan blue exclusion. Aliquots of the cells were frozen down, and stored in liquid nitrogen.
The clonogenic assay test was carried out in 96 well plate format. For each test a frozen aliquot of tumor cells prepared from tumor xenografts was thawed and assay plates were prepared as follows: each test well contained 3 layers of equal volume, 2 layers of semi-solid medium (bottom and top layer), and one layer of medium supernatant, with or without test compound. The bottom layer consisted of 0.05 mL/well Iscove's Modified Dulbecco's Medium (Invitrogen), supplemented with 20% (v/v) fetal calf serum (Sigma), 0.01% (w/v) gentamicin (Invitrogen) and 0.75% (w/v) agar (BD Biosciences). Tumor cells were added to 0.05 mL of the same culture medium supplemented with 0.4% (w/v) agar and plated onto the bottom layer. After 24 h, test compounds were added after serial dilution in DMSO and transfer in cell culture medium, and left on the cells for the duration of the experiment (continuous exposure, 0.05 mL drug overlay). Every dish included six untreated control wells and drug-treated groups in duplicate at 10 concentrations. Cultures were incubated at 37 °C and 7.5% CO2 in a humidified atmosphere for 8 to 13 days and monitored closely for colony growth using an inverted microscope. Within this period, ex vivo tumor growth lead to the formation of colonies with a diameter of >50 µm. At the time of maximum colony formation, counts were performed with an automatic image analysis system. 24 h prior to evaluation, vital colonies were stained with a sterile aqueous solution of 2-(4-iodophenyl)-3-(4-nitrophenyl)-5-phenyltetrazolium chloride (1 mg/mL, 100 µL/well). Sigmoidal concentration-response curves were fitted to the data points obtained for each tumor model using 4 parameter non-linear curve fit (Oncotest Warehouse Software). IC50 values are reported as relative IC50 values, being the concentration of test compound that give a response (inhibition of colony formation/viability) half way between the top and bottom plateau of the sigmoidal concentration-response curve (inflection point of the curve), or as absolute IC50 values, being the concentration of test compound at the intersection of the concentration-response curves with T/C = 50%. For calculation of mean IC50 values the geometric mean was used. Results are presented as mean graph plots or heat maps (individual IC50 values relative to the geometric mean IC50 value) over all cell lines as tested.

Assay [2] has as its system BxPCI-2 cell line. The assay can be described thus: ATP viability assay (CellTiter-Glo). As to conditions: Homo sapiens; BxPCI-2 (wild type RAS); at 24h, 48h and 72h. Format: cell-based. From the text:
(§1) The following well-characterized human pancreatic ductal adenocarcinoma cell lines (ATCC) were used: HPAF II, BxPC-3, MIA-PaCa2 and Panc-1. These cell lines were generated from patient-derived tumors and are widely used model system to study pancreatic cancer (HPAF II: Kim YW, et al. Pancreas 4: 353-362, 1989; BxPC-3: Tan MH, et al. Cancer Invest. 4: 15-23, 1986; MIA-PaCa2: Yunis AA, et al. Int. J. Cancer 19: 128-135, 1977; Pacn-1: Lieber M, et al. Int. J. Cancer 15: 741-747, 1975).
(§2) Viability assay was conducted in 96 well microtiter plates seeded with 3000 cells. Cell viability was measured using CellTiter-Glo assay (Promega), according to the manufacturer's instructions. Luminescence was measured using Victor3 FA (Perkin Elmer) microtiter plate reader. Total luminescence was normalized relative to negative control and curve fitting performed using GraphPad Prism (v6.02) software. IC50 was determined using Cell Viability assay, and data was illustrated using GraphPad Prism (version 6.02)

Assay [3] deals with MIA-PaCa-2 cell line. The assay can be described thus: ATP viability assay (CellTiter-Glo). Format: cell-based. As to conditions: Homo sapiens; MIA-PaCa-2 (RAS mutation); at 24h, 48h and 72h.
Excerpt: as §1, §2
A general note: In ATP-based viability assays light output follows the ATP content of the culture.

Assay [4] concerns HPAF II cells. The assay can be described thus: ATP viability assay (CellTiter-Glo), 3D culture, automatic drug screen. Format: cell-based, human. As to conditions: 72 h, 30-10 µM.
Excerpt: as §1
(§3) Panc-1, HPAF II, KPC pancreatic adenocarcinoma cell lines were trypsin-treated and counted using the Casy Cell Counter according to the manufacturer's recommendations (GmbH). Subsequently, they were seeded onto round bottom non-tissue culture treated 96 well-plates (Falcon, BD NJ, USA) at a concentration of 2500 cells/well in 100 µl DMEM-F12 or phenol red-free DMEM-F12 medium, containing 10% FCS and supplemented with 20% methyl cellulose stock solution. For preparation of methylcellulose stock solution, 6 grams of methylcellulose powder (M0512, Sigma-Aldrich) was autoclaved in a 500 ml flask containing a magnetic stirrer (the methylcellulose powder is resistant to this procedure). The autoclaved methylcellulose was dissolved in preheated 250 ml basal medium (60°C) for 20 min (using the magnetic stirrer). Thereafter, 250 ml medium (room temperature) containing double amount of FCS (20%) was added to a final volume of 500 ml and the whole solution mixed overnight at 4°C. The final stock solution was aliquoted and cleared by centrifugation (5000g, 2 h, room temperature). Only the clear highly viscous supernatant was used for the spheroid assay (about 90-95% of the stock solution). […]
(§4) In order to confirm the results presented in figure 1, S1 was further tested in 2 different cell lines in 3D culture format, using an automatic drug screening assay. The effect of Vacquinol-1 RS (S1) on cell viability was measured after 72h using the CellTiter-Glo assay (Promega) adapted for 3D culture.

For assay [5], the system named is Panc-1 cells. The description is as above. Format: cell-based, human. As to conditions: Panc-1, 3D culture, 72 h.
Excerpt: as §1, §3, §4

In the case of `O[C@H](c1cc(-c2ccc(Cl)cc2)nc2ccccc12)[C@@H]1CCCCN1` [S1, (R)-(2-(4-chlorophenyl)quinolin-4-yl)((S)-piperidin-2-yl)methanol], the pIC50 was 5.05 in assay [1] (colony formation, mean over tumors, read-out: absolute mean IC50 value); 5.09 in assay [1] (colony formation, mean over tumors, read-out: relative mean IC50 value); 5.02 in assay [1] (geometric mean over Table 2, read-out: Mean IC50 (qeometr.) abs. IC50); 5.06 in assay [1] (geometric mean over Table 2, read-out: Mean IC50 (qeometr.) rel. IC50); 4.82 to 5.70 in assay [1] (most tumors tested, read-out: IC50); less than 4.82 in assay [1] (three tumors: BXF1352, CXF647, LXFA289, read-out: IC50). The pIC50 in assay [2] and in assay [3] was 4.72 to 4.92 throughout. In addition, in assay [1] (range over tested xenografts), the “bottom plateaus of the concentration-effect curves” value is reported as 0% to 47%. Besides, in assay [1] (sensitive tumors BXF 1258 and LXFA 526, on average), the “IC50 lower than the mean of all tumors” value is given as 3 fold. The “viability compared to control” value was “marked decrease in viability” in assay [4]; “marked decrease in viability” in assay [5] (30 and 25 µM). This compound gave a decrease in viability in assay [5] (20-10 µM) of approximately 20%.
